From patent US10206916B2, “Cabozantinib salts and their use as anti-cancer agents” (Sandoz AG, priority 2015, dated 2019)

How the values were obtained:
[1] = Dynamic vapour sorption (DVS) with post-DVS XRPD; assay type: physicochemical; conditions: for water up take (weight gain) by DVS: between 20% and 70% RH, ca. 25° C.; for hygroscopicity by DVS: 20% to 70% RH, non-hygroscopic = weight gain of less than 2 weight-%; for Post-DVS XRPD analysis: after DVS sorption/desorption cycle; for hygroscopicity compared with cabozantinib malate: based on DVS isotherm
Method: XRPD analysis was carried out on a Siemens D5000 diffractometer, scanning the samples between 3 and 50 or 30°2-theta. For samples of less than 100 mg, 10-20 mg of material was gently compressed onto a glass disc inserted into an XRPD sample holder. For samples of more than 100 mg, ca. 100 mg of material was gently compressed into a plastic XRPD sample holder to ensure a smooth sample surface, just above the level of the sample holder. The sample was then loaded into the diffractometer running in reflection mode and analyzed using the following experimental conditions. C) Water Content: Dynamic Vapour Sorption (DVS) Approximately 10-20 mg of sample was placed into a vapour sorption balance pan and loaded into a DVS-1 dynamic vapour sorption balance by Surface Measurement Systems. The sample was subjected to a ramping profile from 20-90% relative humidity (RH) at 10% increments, maintaining the sample at each step until a stable weight had been achieved (99.5% step completion). After completion of the sorption cycle, the sample was dried using the same procedure, but all the way down to 0% RH and finally taken back to the starting point of 20% RH. The weight change during the sorption/desorption cycles were plotted, allowing for the hygroscopic nature of the sample to be determined.

[2] = Thermogravimetric/differential thermal analysis (TG/DTA); assay type: physicochemical
Method: B) Organic Solvent Content: Thermogravimetric Analysis (TGA) Approximately, 5-10 mg of material was accurately weighed into an open aluminium pan and loaded into a simultaneous thermogravimetric/differential thermal analyser (TG/DTA) and held at room temperature. The sample was then heated at a rate of 10° C./min from 25° C. to 300° C. during which time the change in sample weight was recorded along with any differential thermal events (DTA). Nitrogen was used as the purge gas, at a flow rate of 100 cm^3/min.

[3] = cited from earlier work
[4] = reported in WO2010/083414; cited from earlier work
[5] = Aqueous solubility measurement (slurry in deionized water, HPLC analysis); assay type: physicochemical
Method: HPLC analysis was performed according to the following conditions: • Instrument: Agilent 1100 • Column: Grace Smart RP 185μ 150×4.6 mm • Column Temperature: 30° C. UV wavelength: 249 nm • Injection Volume: 10 μl • Flow Rate: 1.2 ml/min • Mobile Phase A: 0.1% Phosphoric acid • Mobile Phase B: 0.1% Phosphoric acid in acetonitrile • Gradient program: H) Aqueous Solubility Measurements Each salt was individually slurried in deionized water and subjected to shaking for ca. 24 h at ambient temperature (ca. 22° C.). The resulting saturated solutions were filtered and analyzed by HPLC analysis. XRPD analysis was carried out on any solid retained after the solubility experiment.

[6] = listed as cabozantinib succinate Form A, succinate
[7] = listed as crystalline succinate salt of cabozantinib, succinate
[8] = listed as acetate salt, acetate

SMILES: COc1cc2nccc(Oc3ccc(NC(=O)C4(C(=O)Nc5ccc(F)cc5)CC4)cc3)c2cc1OC [(L)-malate, reference compound]
- weight gain relative to cabozantinib succinate Form A ([1]; DVS, 20 to 70% RH): 10 fold
- water up take (weight gain) by DVS [1]: 0.3 weight-%
- water up take (weight gain) by DVS ([1]; listed as L-malate): about 0.3 weight-%
- water up take (weight gain) by DVS ([1]; listed as cabozantinib malate): about 0.3 weight-%
- TG/DTA weight loss corresponding to the endotherm in DTA trace at ca. 178° C. ([2]; at ca. 178° C.): C. and 1% loss
- TG/DTA weight loss below ca. 178° C. ([2]; below ca. 178° C.): 1.2 weight-% loss
- solubility compared with cabozantinib free base [3]: enhanced solubility
- hygroscopicity as reported [4]: non-hygroscopic

SMILES: COc1cc2nccc(Oc3ccc(NC(=O)C4(C(=O)Nc5ccc(F)cc5)CC4)cc3)c2cc1OC [Cabozantinib, N-{4-[(6,7-dimethoxy-4-quinolinyl)oxy]phenyl}-N′-(4-fluorophenyl)-1,1-cyclopropanedicarboxamide]
- solubility (BCS classification) [3]: low solubility

SMILES: COc1cc2nccc(Oc3ccc(NC(=O)C4(C(=O)Nc5ccc(F)cc5)CC4)cc3)c2cc1OC.O=C(O)CCC(=O)O [Form A, N-{4-[(6,7-dimethoxy-4-quinolinyl)oxy]phenyl}-N′-(4-fluorophenyl)-1,1-cyclopropanedicarboxamide succinate]
- hygroscopicity by DVS [1]: non-hygroscopic
- Post-DVS XRPD analysis [1, 6]: remained crystalline and consistent with the input form
- Post-DVS XRPD analysis [1, 7]: remained crystalline and was consistent with the input form
- hygroscopicity compared with cabozantinib malate [1, 6]: less hygroscopic
- hygroscopicity compared with cabozantinib malate ([1]; succinate): lower hygroscopicity
- water up take (weight gain) by DVS [1, 6]: about 0.03 weight-%
- water up take (weight gain) by DVS [1, 7]: ca. 0.03 weight-%
- water up take (weight gain) by DVS ([1]; succinate): 0.03 weight-%
- TG/DTA weight loss corresponding to the endotherm in the DTA trace at ca. 173° C. ([2]; heating rate 10° C./min, at ca. 173° C., listed as cabozantinib succinate Form A, succinate): ~1 weight-%
- TG/DTA weight loss below ca. 173° C. ([2]; heating rate 10° C./min, below ca. 173° C., listed as cabozantinib succinate Form A, succinate): < 0.6 weight-%
- solubility compared to cabozantinib malate ([5]; comparison in words, no malate value printed): improved solubility
- solid form after the solubility experiment (XRPD) ([5]; solid retained after solubility experiment): consistent with the input succinate salt
- solubility ([5]; thermodynamic from solid, deionized water, shaking ca. 24 h, ambient temperature (ca. 22° C.), HPLC analysis): 164 µg/mL

SMILES: CC(=O)O.COc1cc2nccc(Oc3ccc(NC(=O)C4(C(=O)Nc5ccc(F)cc5)CC4)cc3)c2cc1OC [Form A-1, N-{4-[(6,7-dimethoxy-4-quinolinyl)oxy]phenyl}-N′-(4-fluorophenyl)-1,1-cyclopropanedicarboxamide acetate]
- hygroscopicity by DVS [1]: non-hygroscopic
- Post-DVS XRPD analysis ([1]; acetate): remained crystalline and consistent with the input form
- Post-DVS XRPD analysis [1, 8]: remained crystalline
- hygroscopicity compared with cabozantinib malate [1]: less hygroscopic
- water up take (weight gain) by DVS [1, 8]: ~0.1 weight-%
